Structures are written as SMILES.

Test [1] relates to T1, S. cervi PFK (phosphofructokinase).
T1 construct: native enzyme purified to electrophoretic homogeneity from adult female worms (from buffalo peritoneal folds); subunit mass 90 kDa
In words: coupled assay (aldolase/TPI/GDH, NADH oxidation at […] nm), Lineweaver-Burk. The following applies: 50 and 100 μM ATP, 3.3 mM Mg2+, pH 8.0. The format is biochemical, Setaria cervi.

Test [2] addresses T1, S. cervi PFK (phosphofructokinase). The test is described as above. Type of test: biochemical, Setaria cervi. Conditions: competitive vs F-6-P, 0.1 mM ATP, 3.3 mM Mg2+, Tris-HCl pH 8.0.

Consider `O=P(O)(O)OC[C@H]1OC(O)(CO)[C@@H](O)[C@@H]1O` (stereo partly drawn) [F-6-P, D-fructose-6-phosphate], for which the Km in test [1] was 1050 µM.

Regarding `C=C(OP(=O)(O)O)C(=O)O` [PEP, phosphoenolpyruvate], the Ki in test [2] came to 800 µM.

Compound `O=P(O)(O)OC[C@H]1OC(O)(COP(=O)(O)O)[C@@H](O)[C@@H]1O` (stereo partly drawn) [FDP, D-fructose-1,6-diphosphate] showed a Ki in test [2] (aldolase in coupling system acts on FDP) of 0.18 µM. This counts as sub-micromolar.

Usually Km stands for the concentration of substrate that gives half-maximal velocity. A word on the Ki: it is a dissociation constant, usually derived from enzyme kinetics or from competition with a known ligand.

(Values after article PMC3173978, “Kinetic Characterisation of Phosphofructokinase Purified from Setaria cervi: A Bovine Filarial Parasite” (Enzyme Research, 2011).)
